Measurements reported in patent US20220143148A1, “COMPOSITIONS AND METHODS FOR MODULATING CGRP SIGNALING TO REGULATE INTESTINAL INNATE LYMPHOID CELLS” (The Broad Institute, Inc., priority 2019, published 2022).

Assays:
[1] = test system: intestinal KLRG1+ ILC2s; test: Bulk RNA-seq of intestinal KLRG1+ ILC2s stimulated in vitro; type: cell-based, mouse
Text: To determine if α-CGRP can directly trigger signaling in ILC2s and impact their transcriptional states under inflammatory conditions, Applicants performed bulk RNA-seq of KLRG1^+ ILC2s isolated from the small intestine and stimulated in vitro with IL-25 alone or together with α-CGRP. […] Thus, α-CGRP inhibits IL-25-induced proliferation and activation of intestinal KLRG1+ILC2s.
The presence at homeostasis of α-CGRP receptors on ILC2s and α-CGRP's expression on ChAT^+ intestinal neurons led Applicants to hypothesize that it has an effect on ILC2s during homeostasis. To test this hypothesis, Applicants next measured the expression profiles of intestinal KLRG1^+ ILC2s stimulated in vitro by α-CGRP alone, and identified genes differentially expressed under this signal (FIG. 6D, Methods).
ILC2 culture. Sort-purified intestinal KLRG1^+ ILC2s were incubated in RPMI supplemented with 10% FCS, 10 mM Hepes, 1 mM sodium pyruvate, 10% FBS, 80 μm 2-mercaptoethanol, 2 mM glutamine, 100 U/ml penicillin, […] streptomycin, 100 ng/ml IL-2 and 100 ng/ml IL-7 in 96-well round bottom plate at 37° C. and 5% CO2. If indicated, the culture was supplemented with 100 ng/ml IL-25. For the in vitro proliferation assay, cells from different mice were pooled and labeled with CellTrace Violet, and then cultured at 1,000-1,500 cells per well with 10 μg/ml α-CGRP for 60 hours. When indicated, 10 μM forskolin or 1 μM SQ 22, 536 in DMSO was supplied and cells were cultured for 40 hours. For bulk RNA-seq, cells from individual mice were stimulated at 200 cells per well with 0.4 μg/ml α-CGRP for 3 hours. For bulk ATAC-seq, cells were stimulated with 0.4 μg/ml α-CGRP for 2 hours.
Bulk RNA-seq. 200 ILC2s from each condition were lysed in 10 ul TCL buffer plus 0.5% 2-Mercaptoethanol. Libraries were processed with SMART-Seq2 (Picelli et al., 2013) with at least three replicates per condition, and paired-end sequenced (75 bp×2) with a […] Nextseq 500 high output V2 kit.
Reads were aligned to the mouse reference genome (NCBI 38, mm10) using Bowtie (Langmead et al., 2009) with default parameters, and expression abundances were estimated using RSEM software (Li and Dewey, 2011). The differential gene expression analysis was performed with edgeR (Robinson et al., 2010) with default parameters.

[2] = test system: KLRG1+ ILC2s; test: In vitro proliferation assay (CellTrace Violet, flow cytometry); type: cell-based, mouse; conditions: IL-25 plus α-CGRP, 60 hours; P=0.01, t-test
Procedure: (§1) Flow cytometry and cell sorting. Cells were washed and suspended in MACS buffer (pH 7.4; PBS plus 2% FCS and 2 mM EDTA). Nonspecific antibody binding was blocked with CD16/CD32 (2.4G2) antibody for 15 min on ice. Cells were then stained with antibody cocktails for 30 min at 4° C. Lineage-positive cells were excluded for analyzing ILCs by staining for CD3ε (145-2C11), CD5 (53-7.3), CD19 (6D5), CD11b (M1/70), CD8 (53-6.7), CD11c (N418), Gr-1 (RB6-8C5), TCRγδ (eBioGL3 (GL-3, GL3)) and TCRβ (H57-597). To analyze mast cells, lineage-positive cells were excluded by staining for CD3ε, CD5, CD19, CD11c and SiglecF (E50-2440). For surface staining, antibodies for KLRG1 (2F1), CD45 (30-F11), CD127 (A7R34), CCR6 (29-2L17), NKp46 (29A1.4), CD90.2 (53-2.1), FcεRI (Mar-1), IgD (11-26c.2a) and ST2 (DJ8) were used. For intracellular staining, cells were fixed and permeabilized using the Foxp3 transcription factor staining buffer set, followed by staining with anti-GATA-3 (TWAJ) or anti-RORγt (B2D) antibodies. Dead cells were excluded with 7-AAD or Fixable Viability Dye eFluor 780. Flow cytometry was performed on Cytoflex (Beckman Coulter) and analyzed with FlowJo software. Sorting was performed with the SH800S Cell Sorter (Sony Biotechnology).
ILC2 culture. […]

[3] = test system: KLRG1+ ILC2s; test: IL-25-induced in vivo ILC2 activation model; design: species or system mouse
Text: Intraperitoneal administration of α-CGRP impaired IL-25-induced expansion of KLRG1^+ ILC2s (FIGS. 5B and 12A), consistent with the in vitro results. Recent work has shown that intestinal KLRG1^+ ILC2s can migrate to mesenteric lymph nodes (mLNs) and other tissues during inflammation via sphingosine 1-phosphate (S1P)-mediated chemotaxis (Huang et al., 2018). To determine whether α-CGRP primarily impacts intestinal or mLN ILC2s, Applicants relied on the fact that intestinal GATA3^+ ILC2s are generally phenotypically KLRG1^+ST2^− (data not shown), whereas mLN ILC2s are mainly ST2^+ at steady state (FIG. 5C). IL-25 administration increased the frequency of both KLRG1^+ST2^− inflammatory ILC2s and ST2^+ ILC2s in mLNs (FIGS. 5C-E and 12B). […] Thus, α-CGRP preferentially regulates the response of intestinal KLRG1^+ST2^− ILC2s. […] Taken together, α-CGRP antagonized expansion of intestinal KLRG1^+ ILC2s in two different type 2 inflammatory models.
To activate ILC2s in vivo, 200 ng of IL-25 was intraperitoneally injected into 7-10 weeks old mice daily for two days. 1 μg α-CGRP was injected together as noted.
as §1
Immunofluorescence staining and imaging. The small intestines were fixed in 2% PFA, embedded in O.C.T. Compound and sliced into 10 μm by frozen section. The slides were blocked with 0.1% Triton X-100, 2% FCS and donkey serum. […] The images were analyzed with ImageJ.

[4] = test system: lung ILC2s; conditions: co-stimulated with IL-33; cited from earlier work

expression of adenylate cyclase-mediated GPCR signaling genes (Adrb2, Adora2a, Pde4b, Akap12) and cAMP response genes (Areg, Crem, Il5) ([1]; α-CGRP alone in vitro): induced expression
Substance: α-CGRP: neuropeptide alpha-calcitonin gene-related peptide, encoded by exon 5 of Calca; administered as peptide
Il5 expression ([1]; IL-25 together with α-CGRP in vitro): further induced
IL-25-induced activation signature ([1]; IL-25 together with α-CGRP in vitro, adjusted P<0.001, t-test): significantly suppressed
expression of cell cycle arrest genes (Cdkn1a, Gadd45a, Akap12) and negative regulators of ILC2 expansion (Adrb2, Pdcd1) ([1]; α-CGRP alone in vitro): induced expression
IL-25-induced cell division [2]: significantly suppressed
frequency of KLRG1+ST2− ILC2s in mLNs ([3]; IL-25 co-administered with α-CGRP): reduced
IL-25-induced expansion of KLRG1+ ILC2s ([3]; intraperitoneal α-CGRP with IL-25, small intestine, IF): impaired
IL-5 expression in lung ILC2s [4]: increases
